Legend:
arthropods [1] = assay: Arthropod repellent test of short-listed compounds found by pharmacophore database search; assay type: in vivo; conditions: for Experimental PT: Table 3, compounds identified by database search; for repellent activity against arthropods (in words): short list of 138 compounds from in-house CIS screened
Source text: As provided in Example 4, the pharmacophore model of the present invention was used to search three-dimensional multiconformer databases, including an in-house Chemical Information System (Chemical Information System, Division of Experimental Therapeutics, Walter Reed Army Institute of Research, Silver Spring, Md.), National Cancer Institute, IBS and Maybridge databases, to screen for potential new repellent agents. The Chemical Information System database has over 240,000 compounds and was transformed into a multiconformer database in CATALYST® using the catDB® utility program as implemented in the software. The catDB® format allows a molecule to be represented by a limited set of conformations thereby permitting conformational flexibility to be included during the search of the database.
Specifically, the three-dimensional pharmacophore of the present invention was used as a template for search various three-dimensional multi-conformer databases. Three-dimensional multi-conformer databases of molecules comprise all possible conformations of the three-dimensional structure of each molecule in the database within an energy range of 0 to 25 kcal/mol. The three-dimensional structures in the databases were mapped to or compared with the three-dimensional pharmacophore of the present invention to identify compounds having the same or similar three-dimensional conformations.
The compounds were short listed on the basis of their ADME (Absorption, Distribution, Metabolism, and Excretion) properties and were evaluated by rapid in silico screening using Cerus^2ADME methodology. See Cerius^2ADME. Accelrys Inc. (2003) San Diego, Calif. The short listed compounds were then tested for arthropod repellent property using methods known in the art. See e.g. Debboun, et al. (1999) J. Am. Mosq. Cont. Assoc. 15(3):342-347; and Gupta, R K and Rutledge, L C (1991) J. Am. Mosq. Cont. Assoc. 7:490-493, which are herein incorporated by reference.
Three-dimensional multiconformer databases, including an in-house Chemical Information System (Chemical Information System, Division of Experimental Therapeutics, Walter Reed Army Institute of Research, Silver Spring, Md.), National Cancer Institute, IBS and Maybridge databases, were screened for potential new repellent agents using the pharmacophore model of the present invention. The Chemical Information System database of the Division of Experimental Therapeutics, WRAIR is a database of more than 245,000 proprietary compounds. By using the catDB utility program of the CATALYST®, the database was transformed into a multi-conformer based 3D database. The database searching protocol in the CATALYST® involves a rapid 3D screening process followed by a rigorous atom-by-atom mapping in which a fairly comprehensive set of features including the chemical features of the pharmacophore are considered. In addition to the traditional pharmacophore based searching, 3D shape similarity and partial match searching may also be performed. See Kurogi, Y and Gunner, O F (2001) Current Medicinal Chemistry 8:1035-1055, which is herein incorporated by reference.

arthropod = conditions: Table 1, training set of 11 repellents; protection (repelling) time; cited from earlier work
mosquitoes = conditions: cited from earlier work
arthropods [2] = conditions: under warm, humid conditions; cited from earlier work
white rats = conditions: cited from earlier work

Compound | Experimental PT (arthropods [1]) | Experimental PT (arthropod) | further results
CCN(CC)C(=O)CC1CCCCC1 [2-cyclohexyl-N,N-diethylacetamide] | 0.24 h |  | 
CCOc1ccccc1C(=O)N(CC)CC |  | 0.5 h | 
C=CCSc1nccnc1C [2-allylsulfanyl-3-methyl-pyrazine] | 1.6 h |  | repellent activity against arthropods (in words) (arthropods [1]): found to exhibit repellent activity against arthropods
COc1ccc(OC)c(C(=O)CBr)c1 [2-bromo-1-(2,5-dimethoxy-phenyl)-ethanone] | 2.6 h |  | repellent activity against arthropods (in words) (arthropods [1]): found to exhibit repellent activity against arthropods
CCN(CC)C(=O)Cc1cccc(C(F)(F)F)c1 [N,N-diethyl-2-(3-trifluoromethyl-phenyl)-acetamide] | 0.14 h |  | 
CCN(CC)C(=O)c1cccc(C(F)(F)F)c1 [N,N-diethyl-3-trifluoromethyl-benzamide] | 0.5 h |  | 
O=C(OCCCO)c1ccccc1 |  | 7.5 h | 
CCCCON1CN(C)N(OCCCC)C1=O |  | 0.6 h | 
CCCCN1C(O)=CC(C)c2ccccc21 (centres unmarked) |  | 2.0 h | 
CCCN(CCC)C(=O)COCc1ccccc1 |  | 0.5 h | 
CCCCC(CC)(CO)CO |  | 1.7 h | 
CC(C)(Oc1ccccc1Cl)C(N)=O [2-(2-chloro-phenoxy)-2-methyl-propionamide] | 2.6 h |  | repellent activity against arthropods (in words) (arthropods [1]): found to exhibit repellent activity against arthropods
Cc1cc(C)c(C)c(C(=O)C(C)C)c1C [2-methyl-1-(2,3,5,6-tetramethyl-phenyl)-propan-1-one] | 9.3 h |  | repellent activity against arthropods (in words) (arthropods [1]): found to exhibit repellent activity against arthropods
CCN(CC)C(=O)c1ccccc1Cl |  | 1.2 h | 
CCN(CC)C(=O)Cc1cccc(Br)c1 [N,N-diethyl-2-(3-bromo-phenyl)-acetamide] | 0.63 h |  | 
CCCCCCCCC(O)C1CCC(CCCCC(=O)O)O1 (centres unmarked) [5-[5-(1-hydroxy-nonyl)-tetrahydro-furan-2-yl]-pentanoic acid] |  |  | landing and feeding deterrence (mosquitoes): acts as a landing and feeding deterrent for mosquitoes
ClOc1c(Cl)c(Cl)c(Cl)c(Cl)c1Cl |  | 0.2 h | 
CCCN(CCC)C(=O)c1ccccc1OCC |  | 0.3 h | 
CCN(CC)C(=O)c1cccc(C)c1 [DEET, N,N-diethyl-m-toluamide] |  | 1.0 h | duration of application (arthropods [2]): 1 to 2 h; toxicity on regular skin application (white rats): gonadotoxic and embryotoxic
CC(C)COC(=O)CC(O)C(=O)OCC(C)C (centres unmarked) |  | 2.5 h | 

— patent US7897162B2, “Arthropod repellent pharmacophore models, compounds identified as fitting the pharmacophore models, and methods of making and using thereof” (The United States of America as represented by the …, priority 2003, dated 2011)
